# Reference: patent US7683168B2, “Compositions of novel opioid compounds and method of use thereof” (priority 2005, dated 2010)
# Key:
# human mu opioid receptor = molecular target: T1, human mu opioid receptor (Homo sapiens, UniProt P35372); assay: radioligand binding, human mu opioid receptor, CHO cell membranes; conditions: species not given, read-out: μ
# T1 construct: purchased Perkin Elmer, Boston, Mass; 6110535; host or cells: CHO cells
# mouse vas deferens = assay: electrically stimulated mouse vas deferens (MVD) ED50; type: cell-based; conditions: ED50, inhibition of electrically induced contractions
# human delta receptor = molecular target: T2, human delta receptor (Homo sapiens, UniProt P41143); assay: radioligand binding, human delta receptor, HEK-293 cell membranes; conditions: cell not marked (rat), species not given, read-out: δ
# T2 construct: purchased Perkin Elmer, Boston, Mass; 6110549; host or cells: HEK-293 cells
# T2 sequence (P41143 whole entry): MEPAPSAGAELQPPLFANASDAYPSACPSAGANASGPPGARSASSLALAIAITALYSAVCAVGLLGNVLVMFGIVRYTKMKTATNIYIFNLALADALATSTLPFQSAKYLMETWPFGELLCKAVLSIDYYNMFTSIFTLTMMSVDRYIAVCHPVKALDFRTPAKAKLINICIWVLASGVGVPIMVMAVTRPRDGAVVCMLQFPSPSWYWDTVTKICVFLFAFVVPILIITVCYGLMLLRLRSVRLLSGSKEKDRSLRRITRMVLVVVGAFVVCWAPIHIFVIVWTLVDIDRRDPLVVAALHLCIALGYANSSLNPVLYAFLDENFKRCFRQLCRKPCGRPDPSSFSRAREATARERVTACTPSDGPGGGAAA
# T1 sequence (P35372 whole entry): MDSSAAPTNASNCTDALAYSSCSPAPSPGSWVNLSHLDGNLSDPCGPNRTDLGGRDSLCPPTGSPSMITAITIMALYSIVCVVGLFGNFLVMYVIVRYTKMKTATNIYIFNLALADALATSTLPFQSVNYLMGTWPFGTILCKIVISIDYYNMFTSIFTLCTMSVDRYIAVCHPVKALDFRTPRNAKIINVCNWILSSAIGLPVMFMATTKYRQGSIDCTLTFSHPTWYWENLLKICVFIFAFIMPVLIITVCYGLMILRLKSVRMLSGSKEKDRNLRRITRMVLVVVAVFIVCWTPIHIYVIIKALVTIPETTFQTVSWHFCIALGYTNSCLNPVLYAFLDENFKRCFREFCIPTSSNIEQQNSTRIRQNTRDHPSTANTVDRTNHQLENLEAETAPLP
smiles,measurement,setting,value
C[C@@H]1CN(C(c2cccc(O)c2)c2cccc(C(=O)N3CCCN(CC(=O)O)CC3)c2)[C@@H](C)CN1Cc1cccc(F)c1 (stereo partly shown),Ki,human mu opioid receptor,3.1 nM
CCOC(=O)CCCCCCN1CCCN(C(=O)c2cccc(C(c3cccc(O)c3)N3C[C@@H](C)N(Cc4cccc(F)c4)C[C@@H]3C)c2)CC1 (stereo partly shown),Ki,human mu opioid receptor,7 nM
same,EC50,mouse vas deferens,245 nM
same,Ki,human delta receptor,13.3 nM
C[C@@H]1CN(C(c2cccc(O)c2)c2cccc(C(=O)N3CCCN(CCCCCCC(=O)O)CC3)c2)[C@@H](C)CN1Cc1cccc(F)c1 (stereo partly shown),Ki,human mu opioid receptor,222 nM
same,EC50,mouse vas deferens,109 nM
same,Ki,human delta receptor,141 nM
CCOC(=O)CCCCCCN1CCCN(C(=O)c2cccc(C(c3cccc(O)c3)N3C[C@@H](C)N(CC4CC4)C[C@@H]3C)c2)CC1 (stereo partly shown),Ki,human mu opioid receptor,8 nM
same,EC50,mouse vas deferens,88.1 nM
same,Ki,human delta receptor,44.3 nM
C=CCN1C[C@H](C)N(C(c2cccc(O)c2)c2cccc(C(=O)N3CCCN(Cc4cccc(C(=O)OC)c4)CC3)c2)C[C@H]1C (stereo partly shown),EC50,mouse vas deferens,19.6 nM
C=CCN1C[C@H](C)N(C(c2cccc(O)c2)c2cccc(C(=O)N3CCCN(Cc4ccccc4C(=O)OC)CC3)c2)C[C@H]1C (stereo partly shown),EC50,mouse vas deferens,21.8 nM
"CCOC(=O)CCCCCN1CCN(C(=O)c2cccc([C@H](c3cccc(O)c3)N3C[C@@H](C)N(CC4CC4)C[C@@H]3C)c2)CC1 [Example 100, 6-(4-{3-[(R)-((2S,5R)-4-Cyclopropylmethyl-2,5-dimethyl-piperazin-1-yl)-(3-hydroxy-phenyl)-methyl]-benzoyl}-piperazin-1-yl)-hexanoic acid ethyl ester]",EC50,mouse vas deferens,170 nM
"C[C@@H]1CN([C@@H](c2cccc(O)c2)c2cccc(C(=O)N3CCN(CCCCCC(=O)O)CC3)c2)[C@@H](C)CN1CC1CC1 [Example 101, 6-(4-{3-[(R)-((2S,5R)-4-Cyclopropylmethyl-2,5-dimethyl-piperazin-1-yl)-(3-hydroxy-phenyl)-methyl]-benzoyl}-piperazin-1-yl)-hexanoic acid]",EC50,mouse vas deferens,75.8 nM
"C=CCN1C[C@H](C)N([C@@H](c2cccc(O)c2)c2cccc(C(=O)N3CCN(CCCCCCC(=O)OCC)CC3)c2)C[C@H]1C [Example 108, 7-(4-{3-[(R)-((2S,5R)-4-Allyl-2,5-dimethyl-piperazin-1-yl)-(3-hydroxy-phenyl)-methyl]-benzoyl}-piperazin-1-yl)-heptanoic acid ethyl ester]",EC50,mouse vas deferens,31.7 nM
"CCOC(=O)CCCCCCN1CCN(C(=O)c2cccc([C@H](c3cccc(O)c3)N3C[C@@H](C)N(Cc4cccc(F)c4)C[C@@H]3C)c2)CC1 [Example 112, 7-(4-{3-[(R)-[(2S,5R)-4-(3-Fluoro-benzyl)-2,5-dimethyl-piperazin-1-yl]-(3-hydroxy-phenyl)-methyl]-benzoyl}-piperazin-1-yl)-heptanoic acid ethyl ester]",Ki,human mu opioid receptor,5.9 nM
same,EC50,mouse vas deferens,111 nM
"CCOC(=O)CCCCCCN1CCN(C(=O)c2cccc([C@H](c3cccc(O)c3)N3C[C@@H](C)N(CC4CC4)C[C@@H]3C)c2)CC1 [Example 114, 7-(4-{3-[(R)-((2S,5R)-4-Cyclopropylmethyl-2,5-dimethyl-piperazin-1-yl)-(3-hydroxy-phenyl)-methyl]-benzoyl}-piperazin-1-yl)-heptanoic acid ethyl ester]",EC50,mouse vas deferens,221 nM
"C[C@@H]1CN([C@@H](c2cccc(O)c2)c2cccc(C(=O)N3CCN(CCCCCCC(=O)O)CC3)c2)[C@@H](C)CN1CC1CC1 [Example 115, 7-(4-{3-[(R)-((2S,5R)-4-Cyclopropylmethyl-2,5-dimethyl-piperazin-1-yl)-(3-hydroxy-phenyl)-methyl]-benzoyl}-piperazin-1-yl)-heptanoic acid]",EC50,mouse vas deferens,85.8 nM
same,Ki,human delta receptor,22 nM
"C[C@@H]1CN([C@@H](c2cccc(O)c2)c2cccc(C(=O)N3CCN(CC(=O)O)CC3)c2)[C@@H](C)CN1Cc1ccc(F)cc1 [Example 116, (4-{3-[(R)-[(2S,5R)-4-(4-Fluoro-benzyl)-2,5-dimethyl-piperazin-1-yl]-(3-hydroxy-phenyl)-methyl]-benzoyl}-piperazin-1-yl)-acetic acid]",EC50,mouse vas deferens,1.95 nM
same,Ki,human delta receptor,0.83 nM
